Assay [1] can be described thus: reduction of Shn3 3'UTR-driven luciferase in osteoblasts – cell-based, Clone20 osteoblasts, firefly luciferase, cherry-picked, dose response (AID 624132).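 Note: firefly luciferase luminescence from reporter carrying the Shn3 3'UTR in osteoblasts.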 The class given is functional.
For a further assay, the target named is Integrin alpha-L (Mus musculus, UniProt P24063). The assay can be described thus: modulators of CD8 T cell-vesicle binding, dose response, powder samples, mouse 2C CD8+ cells (AID 504565). The assay is classed as functional.
Sequence of Integrin alpha-L (P24063 whole entry): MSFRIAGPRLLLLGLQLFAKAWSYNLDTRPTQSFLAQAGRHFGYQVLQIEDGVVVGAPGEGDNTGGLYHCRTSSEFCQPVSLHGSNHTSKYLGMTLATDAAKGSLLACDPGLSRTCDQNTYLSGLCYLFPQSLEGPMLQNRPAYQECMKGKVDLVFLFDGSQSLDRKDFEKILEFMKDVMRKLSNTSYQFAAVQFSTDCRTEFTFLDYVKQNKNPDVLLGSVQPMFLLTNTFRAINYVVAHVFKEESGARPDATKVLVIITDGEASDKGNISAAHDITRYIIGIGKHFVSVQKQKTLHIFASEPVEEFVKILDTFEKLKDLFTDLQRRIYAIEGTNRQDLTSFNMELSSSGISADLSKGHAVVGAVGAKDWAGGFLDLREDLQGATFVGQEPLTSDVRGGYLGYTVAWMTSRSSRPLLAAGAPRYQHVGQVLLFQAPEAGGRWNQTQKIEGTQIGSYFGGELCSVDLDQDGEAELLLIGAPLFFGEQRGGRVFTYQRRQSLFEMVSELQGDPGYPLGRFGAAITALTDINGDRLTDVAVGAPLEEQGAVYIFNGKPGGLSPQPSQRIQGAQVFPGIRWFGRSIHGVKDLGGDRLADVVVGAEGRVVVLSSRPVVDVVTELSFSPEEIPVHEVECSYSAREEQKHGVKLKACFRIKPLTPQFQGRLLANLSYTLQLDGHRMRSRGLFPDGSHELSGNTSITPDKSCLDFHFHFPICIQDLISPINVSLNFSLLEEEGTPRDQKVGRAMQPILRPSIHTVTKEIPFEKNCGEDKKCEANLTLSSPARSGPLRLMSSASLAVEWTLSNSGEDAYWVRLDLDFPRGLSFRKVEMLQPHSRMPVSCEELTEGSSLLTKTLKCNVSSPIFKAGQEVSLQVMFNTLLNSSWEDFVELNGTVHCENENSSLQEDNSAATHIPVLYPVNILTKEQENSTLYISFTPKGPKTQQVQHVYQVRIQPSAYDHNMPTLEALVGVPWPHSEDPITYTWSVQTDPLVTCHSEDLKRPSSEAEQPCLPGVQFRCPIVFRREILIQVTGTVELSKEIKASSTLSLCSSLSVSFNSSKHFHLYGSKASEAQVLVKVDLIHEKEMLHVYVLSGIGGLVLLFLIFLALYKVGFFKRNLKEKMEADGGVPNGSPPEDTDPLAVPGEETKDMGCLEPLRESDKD
Assay [2] deals with T1, Alkaline phosphatase, tissue-nonspecific isozyme (Homo sapiens, UniProt P05186).
T1 sequence (P05186 whole entry): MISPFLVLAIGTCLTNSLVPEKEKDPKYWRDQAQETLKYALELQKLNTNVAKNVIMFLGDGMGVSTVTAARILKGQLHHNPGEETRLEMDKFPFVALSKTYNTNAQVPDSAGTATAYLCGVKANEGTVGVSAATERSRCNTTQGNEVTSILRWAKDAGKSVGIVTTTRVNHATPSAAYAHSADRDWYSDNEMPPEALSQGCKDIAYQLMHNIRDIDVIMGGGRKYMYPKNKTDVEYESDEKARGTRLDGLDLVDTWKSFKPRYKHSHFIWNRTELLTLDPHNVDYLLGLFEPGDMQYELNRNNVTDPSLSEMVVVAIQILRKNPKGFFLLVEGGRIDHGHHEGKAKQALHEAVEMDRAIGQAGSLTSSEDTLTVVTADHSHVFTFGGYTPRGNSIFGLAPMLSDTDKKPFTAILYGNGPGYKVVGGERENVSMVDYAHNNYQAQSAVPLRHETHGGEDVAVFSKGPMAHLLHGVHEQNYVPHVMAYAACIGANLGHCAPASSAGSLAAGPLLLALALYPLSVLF
In words: potency against alkaline phosphatase TNAP – biochemical, luminescent, dose response, SAR follow-up (AID 1056).

Assay [3] is described as follows: viability of HCT116 lacking mutant beta-catenin – cell-based, human colon tumor, dose response (AID 1045).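 Note: HCT116 colon tumor cells with beta catenin knocked out; cells exposed to compound for 60 hours.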 The class given is functional.
Assay [4] addresses Alkaline phosphatase, placental type (Homo sapiens, UniProt P05187). The assay can be described thus: human placental alkaline phosphatase inhibition – biochemical, luminescence, confirmation (AID 1512). The class given is functional.
Assay [5] in a line: viability of PTEN-deleted HCT116 cells – cell-based, HCT116 PTEN knockout, dose response (AID 1047).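 Note: HCT116 colon tumor cells with PTEN knocked out; cells exposed to compound for 60 hours before readout; potency for loss of cell viability measured by luminescence.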 The class given is functional.
In assay [6] the target is T2, Tyrosine-protein phosphatase non-receptor type 7 (Homo sapiens, UniProt P35236).
T2 sequence (P35236 whole entry): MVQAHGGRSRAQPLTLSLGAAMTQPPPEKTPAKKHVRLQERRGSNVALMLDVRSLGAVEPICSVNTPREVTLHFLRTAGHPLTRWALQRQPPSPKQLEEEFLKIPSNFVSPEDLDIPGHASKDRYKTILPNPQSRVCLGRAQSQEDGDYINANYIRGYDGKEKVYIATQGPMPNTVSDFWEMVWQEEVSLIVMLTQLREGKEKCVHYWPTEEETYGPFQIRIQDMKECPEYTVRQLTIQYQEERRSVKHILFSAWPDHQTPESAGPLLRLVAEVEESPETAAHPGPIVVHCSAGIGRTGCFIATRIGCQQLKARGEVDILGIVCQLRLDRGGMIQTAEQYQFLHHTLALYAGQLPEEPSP
In words: inhibition of hematopoietic tyrosine phosphatase HePTP – biochemical, set 2, SAR follow-up (AID 449736). The assay is classed as functional.

A further assay has as its target Insulin-degrading enzyme (Homo sapiens, UniProt P14735). The assay can be described thus: Dose Response: Fluorescence polarization-based cell-based high throughput dose response assay for inhibitors of insulin-degrading enzyme (IDE). [Related pubchem assays: 434962 (Primary screen (IDE inhibitors in singlicate)), 449730 (Counterscreen (Cytotoxicity in triplicate)), 435028 (Confirmation (IDE inhibitors in triplicate)), 434984 (Summary …. The class given is functional. In general terms: Fluorescence polarisation rises when a labelled molecule tumbles more slowly, as on binding a larger partner.

Assay [7] addresses T3, Zinc finger protein mex-5 (Caenorhabditis elegans, UniProt Q9XUB2).
T3 sequence (Q9XUB2 whole entry): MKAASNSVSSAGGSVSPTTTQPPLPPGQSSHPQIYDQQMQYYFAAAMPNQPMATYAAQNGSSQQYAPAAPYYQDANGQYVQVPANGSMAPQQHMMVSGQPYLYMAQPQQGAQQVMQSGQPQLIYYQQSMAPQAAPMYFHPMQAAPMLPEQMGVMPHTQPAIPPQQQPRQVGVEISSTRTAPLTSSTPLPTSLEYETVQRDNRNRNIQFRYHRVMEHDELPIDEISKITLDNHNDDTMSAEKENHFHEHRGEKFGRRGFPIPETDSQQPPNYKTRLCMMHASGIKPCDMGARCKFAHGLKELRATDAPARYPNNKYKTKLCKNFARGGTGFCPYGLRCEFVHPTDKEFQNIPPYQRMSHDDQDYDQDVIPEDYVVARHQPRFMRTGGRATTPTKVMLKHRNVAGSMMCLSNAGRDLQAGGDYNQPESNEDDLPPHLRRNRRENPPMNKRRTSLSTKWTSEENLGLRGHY
The assay can be described thus: potency of MEX-5 RNA-binding blockers – biochemical, C. elegans, fluorescence polarization, dose response (AID 1960).

For a further assay, the target named is Perilipin-1/ABHD5 (Homo sapiens, UniProt O60240+Q8WTS1). The assay can be described thus: Luminescence-based biochemical high throughput dose response assay for inhibitors of the interaction of the lipase co-activator protein, abhydrolase domain containing 5 (ABHD5) with perilipin-1 (PLIN1) (2K validation set). [Related pubchem assays (depositor defined):AID493027, AID493057].
Sequence of Perilipin-1/ABHD5 (Q8WTS1 whole entry, the tested form may be a part): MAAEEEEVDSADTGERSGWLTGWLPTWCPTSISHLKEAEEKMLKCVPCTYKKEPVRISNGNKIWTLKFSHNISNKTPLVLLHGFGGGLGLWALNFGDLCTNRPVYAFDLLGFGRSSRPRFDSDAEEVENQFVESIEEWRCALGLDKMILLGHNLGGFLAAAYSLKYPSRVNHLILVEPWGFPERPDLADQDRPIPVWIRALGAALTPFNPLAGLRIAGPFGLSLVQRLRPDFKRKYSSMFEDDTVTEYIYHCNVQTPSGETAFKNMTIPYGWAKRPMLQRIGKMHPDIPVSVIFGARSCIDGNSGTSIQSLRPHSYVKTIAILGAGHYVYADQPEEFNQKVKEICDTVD
Sequence of Perilipin-1/ABHD5 (O60240 whole entry, the tested form may be a part): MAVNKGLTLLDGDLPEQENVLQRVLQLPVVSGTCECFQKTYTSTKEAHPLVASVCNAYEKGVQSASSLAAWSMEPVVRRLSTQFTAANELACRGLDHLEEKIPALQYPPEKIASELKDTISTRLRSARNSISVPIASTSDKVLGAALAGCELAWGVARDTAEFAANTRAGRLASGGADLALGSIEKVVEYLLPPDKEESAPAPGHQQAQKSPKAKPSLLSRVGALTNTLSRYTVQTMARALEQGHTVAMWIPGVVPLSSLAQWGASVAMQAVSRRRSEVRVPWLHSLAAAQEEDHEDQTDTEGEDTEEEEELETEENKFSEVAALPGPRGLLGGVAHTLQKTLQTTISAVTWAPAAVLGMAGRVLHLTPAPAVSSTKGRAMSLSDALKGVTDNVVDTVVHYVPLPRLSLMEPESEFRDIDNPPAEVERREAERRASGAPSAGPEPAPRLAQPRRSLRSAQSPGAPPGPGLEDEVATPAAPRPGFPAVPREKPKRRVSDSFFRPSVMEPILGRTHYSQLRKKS

The target of assay [8] is 1-acylglycerol-3-phosphate O-acyltransferase ABHD5/Perilipin-5 (Homo sapiens, UniProt Q00G26+Q8WTS1). The assay can be described thus: Luminescence-based biochemical high throughput dose response assay for inhibitors of the interaction of the lipase co-activator protein, abhydrolase domain containing 5 (ABHD5) with perilipin-5 (MLDP; PLIN5) (2K validation set). [Related pubchem assays (depositor defined):AID493035, AID493241].
Sequence of 1-acylglycerol-3-phosphate O-acyltransferase ABHD5/Perilipin-5 (Q00G26 whole entry, the tested form may be a part): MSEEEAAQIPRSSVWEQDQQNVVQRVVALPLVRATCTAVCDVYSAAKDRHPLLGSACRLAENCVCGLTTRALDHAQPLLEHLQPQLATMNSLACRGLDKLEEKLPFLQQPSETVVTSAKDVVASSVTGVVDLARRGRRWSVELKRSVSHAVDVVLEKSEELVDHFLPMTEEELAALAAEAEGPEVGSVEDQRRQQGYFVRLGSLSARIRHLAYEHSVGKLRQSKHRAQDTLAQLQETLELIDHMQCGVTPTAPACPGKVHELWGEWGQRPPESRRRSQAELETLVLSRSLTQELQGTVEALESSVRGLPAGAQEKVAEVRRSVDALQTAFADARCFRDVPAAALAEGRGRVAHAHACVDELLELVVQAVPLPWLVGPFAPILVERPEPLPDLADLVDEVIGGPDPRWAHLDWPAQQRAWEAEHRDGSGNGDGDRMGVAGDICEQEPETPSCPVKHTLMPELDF
Sequence of 1-acylglycerol-3-phosphate O-acyltransferase ABHD5/Perilipin-5 (Q8WTS1 whole entry, the tested form may be a part): as the sequence (Q8WTS1 whole entry, the tested form may be a part) above

Assay [9] can be described thus: Counterscreen for IDE inhibitors: Luminescence-based cell-based high throughput dose response assay to identify compounds that are cytotoxic to HEK cells. [Related pubchem assays: 434962 (Primary screen (IDE inhibitors in singlicate)), 449730 (Counterscreen (Cytotoxicity in triplicate)), 435028 (Confirmation (IDE inhibitors in triplicate)) …. The class given is functional. Particulars: HEK293. In general terms: The purpose of a counterscreen is to sort out artefacts and off-target activity.

For assay [10], the target named is T4, RNA-binding protein pos-1 (Caenorhabditis elegans, UniProt G5EF15).
T4 sequence (G5EF15 whole entry): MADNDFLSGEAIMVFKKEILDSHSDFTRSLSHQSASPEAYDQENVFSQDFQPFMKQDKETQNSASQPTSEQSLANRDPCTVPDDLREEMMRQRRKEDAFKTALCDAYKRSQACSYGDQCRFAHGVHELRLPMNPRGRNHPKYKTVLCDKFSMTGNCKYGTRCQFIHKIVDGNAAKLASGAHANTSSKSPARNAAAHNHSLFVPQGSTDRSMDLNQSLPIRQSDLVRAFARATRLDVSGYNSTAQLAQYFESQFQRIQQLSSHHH
In words: disruptors of C. elegans POS-1 RNA interaction – biochemical, fluorescence polarization, dose response (AID 1964).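 Note: purified POS-1 fused to maltose binding protein made in E. coli; potency of compounds blocking POS-1 binding to fluorescent RNA.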

The results in this text go back to ChEMBL document CHEMBL1201862, “PubChem BioAssay data set” (2004).

Molecules are shown by their SMILES. Calls of active or inactive are those of the source.

Sequence of Insulin-degrading enzyme (P14735 whole entry): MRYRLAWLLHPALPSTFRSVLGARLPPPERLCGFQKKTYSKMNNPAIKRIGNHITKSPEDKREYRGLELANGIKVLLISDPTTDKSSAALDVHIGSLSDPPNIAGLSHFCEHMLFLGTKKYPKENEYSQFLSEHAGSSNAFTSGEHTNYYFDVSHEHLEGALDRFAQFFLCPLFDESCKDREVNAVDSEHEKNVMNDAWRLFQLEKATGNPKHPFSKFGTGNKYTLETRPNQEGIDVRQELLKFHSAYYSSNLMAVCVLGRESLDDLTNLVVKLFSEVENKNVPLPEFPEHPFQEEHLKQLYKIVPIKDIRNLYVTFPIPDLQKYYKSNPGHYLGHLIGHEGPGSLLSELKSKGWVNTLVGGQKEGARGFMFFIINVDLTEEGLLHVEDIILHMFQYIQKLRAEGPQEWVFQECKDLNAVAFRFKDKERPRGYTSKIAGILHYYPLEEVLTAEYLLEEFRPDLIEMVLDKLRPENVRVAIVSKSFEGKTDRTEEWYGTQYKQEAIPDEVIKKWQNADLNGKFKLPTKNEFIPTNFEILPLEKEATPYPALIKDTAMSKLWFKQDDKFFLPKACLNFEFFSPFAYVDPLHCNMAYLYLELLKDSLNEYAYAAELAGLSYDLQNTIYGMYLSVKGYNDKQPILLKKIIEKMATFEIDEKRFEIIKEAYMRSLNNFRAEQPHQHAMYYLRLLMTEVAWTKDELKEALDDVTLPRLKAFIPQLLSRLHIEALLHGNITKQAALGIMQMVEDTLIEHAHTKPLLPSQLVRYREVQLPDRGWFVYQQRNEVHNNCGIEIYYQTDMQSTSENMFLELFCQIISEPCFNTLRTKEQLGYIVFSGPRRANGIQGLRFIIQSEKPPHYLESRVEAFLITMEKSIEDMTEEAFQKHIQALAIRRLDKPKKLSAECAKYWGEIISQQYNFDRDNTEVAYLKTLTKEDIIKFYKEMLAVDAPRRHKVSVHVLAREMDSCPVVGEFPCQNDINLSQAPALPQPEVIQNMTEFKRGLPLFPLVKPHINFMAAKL
Sequence of Alkaline phosphatase, placental type (P05187 whole entry): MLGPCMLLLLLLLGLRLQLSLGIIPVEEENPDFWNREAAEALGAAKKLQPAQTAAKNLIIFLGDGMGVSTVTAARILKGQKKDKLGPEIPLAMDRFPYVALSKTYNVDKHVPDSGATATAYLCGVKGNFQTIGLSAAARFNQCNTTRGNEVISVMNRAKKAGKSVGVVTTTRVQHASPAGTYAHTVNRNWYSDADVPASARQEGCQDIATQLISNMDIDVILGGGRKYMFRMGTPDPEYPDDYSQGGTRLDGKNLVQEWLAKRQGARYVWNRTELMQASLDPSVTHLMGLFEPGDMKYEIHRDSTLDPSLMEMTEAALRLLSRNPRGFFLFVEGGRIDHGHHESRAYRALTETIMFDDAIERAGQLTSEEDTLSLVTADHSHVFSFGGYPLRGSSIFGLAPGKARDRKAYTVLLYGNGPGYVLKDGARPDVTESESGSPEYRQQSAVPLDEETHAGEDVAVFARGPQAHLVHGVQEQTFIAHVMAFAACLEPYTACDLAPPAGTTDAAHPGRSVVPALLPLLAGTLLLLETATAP

`CN(CC(=O)Nc1cc(S(=O)(=O)N2CCCC2)ccc1Cl)Cc1ccc2c(c1)OCO2`: the AC50 in [1] was 13.1 µM (active). Further, the EC50 at Integrin alpha-L was 0.197 µM (active).
For `O=C(NC1(C(F)(F)F)Oc2ccccc2O1)N1CCCC1`, the IC50 in assay [2] was > 100 µM (inactive); in assay [4], 80.9 µM (active). Moreover, the EC50 in assay [3] is 18 µM (active); in [5] it was 15.4 µM (active).
As to `Cc1ccccc1-n1c(N)c(C(=O)N2CCOCC2)sc1=S`, in assay [6], the IC50 is > 100 µM (inactive).
As to `CS(=O)(=O)Oc1ccc2c(c1)O/C(=C\C=C\c1ccccc1)C2=O`, the IC50 against Insulin-degrading enzyme is > 55.9 µM (not active); at Perilipin-1/ABHD5, 11 µM (inactive); in assay [8], 17.6 µM (inactive); in [9], 19.4 µM (not active). The EC50 in [7] was 3.83 µM (active); in [10], 5.46 µM (active).

The AC50 is the midpoint of the concentration-response curve, whichever way the signal moves. In general, EC50 refers to the concentration needed to bring the measured effect to its halfway point. For orientation: IC50 means the point on the concentration scale where inhibition reaches its midpoint.
